Literature values, collected in patent EP4772943A1, “ALKALINE AQUEOUS SOLUTION FOR SEMICONDUCTOR, METHOD FOR USE AS LOW-TOXICITY ALKALINE AQUEOUS SOLUTION FOR SEMICONDUCTOR, AND METHOD FOR PRODUCING ALKALINE AQUEOUS SOLUTION FOR SEMICONDUCTOR” (priority 2023, dated 2025).

Test system: Daphnia sp.
Conditions: OECD TG202 Daphnia sp. acute immobilization test; converted to hydroxide of the quaternary ammonium ion as 100 mass%

For C[N+](C)(C)C.[OH-] [TMAH, Tetramethylammonium hydroxide], the EC50 value is listed as 3 µg/mL.
